Reference: patent publication US4694090A, “Chroman compounds useful as analgerics and antioxidants” (Kuraray Co., Ltd., priority 1984, dated 1987)
Structures can show the parent of a compound that is named as a salt.

How the values were obtained:
[1] = Inhibition of linoleic acid oxidation (ferric thiocyanate absorbance at 500 mμ); settings: 0.2% by weight on linoleic acid basis, pH 9, 70° C.
Experimental: Inhibition of linoleic acid oxidation
A test solution (10 ml) was prepared by adding each test compound, in an amount of 0.2% by weight on the linoleic acid basis, to a borate buffer (pH 9) containing 10^-2 M sodium linoleate. A 0.2 ml portion of the test solution was heated at 70° C. for a specified period of time. After heating, 4.7 ml of 75% ethanol and 0.1 ml of 30% ammonium thiocyanate were added to said test solution, and the mixture was stirred well. Then, 0.1 ml of a ferrous chloride solution [the supernatant obtained by adding an aqueous ferrous sulfate solution (0.6 g/50 ml) and 10 ml of concentrated hydrochloric acid to an aqueous barium chloride solution (0.5 g/50 ml), followed by adequate stirring and standing for a while] was added to said mixture. Exactly 3 minutes later, the resulting solution was measured for the absorbance at 500 mμ. In this way, the trivalent iron formed by the oxidative action of sodium linoleate peroxides was assayed and, based on the assay data, the test compounds were compared with respect to antioxidant activity [cf. Shokuhin Kogaku Jikkensho (Experiments in Food Engineering), vol. I, edited by the Department of Food Engineering, Faculty of Agriculture, Kyoto University, pages 634-635]. The greater the absorbance of the test solution after heating is, the greater the amount of sodium linoleate peroxides formed is.

[2] = AOM (Antioxygen Method) test in ethyl linoleate, time till POV 100 meq/kg; settings: 0.020 g per 100 g ethyl linoleate, aeration 2.33 cc/sec., 97.8° C.
Experimental: To each 100 g of ethyl linoleate was added 0.020 g of one of the test compounds indicated in Table 7 to prepare a test solution. A 20 ml portion of each test solution was exposed to the accelerated conditions of aeration of 2.33 cc/sec. at 97.8° C. in an AOM (Antioxygen Method) test and the time period till the POV (peroxide value) reached 100 meq/kg was determined.

[3] = Japanese Laid-Open Patent Publication No. 94382/1980; cited from earlier work
[4] = Analgesic activity, acetic acid writhing test (mice); assay type: in vivo, Male ddY strain mice; settings: 100 mg/kg, s.c., male ddY mice, groups of ten
[5] = Acute toxicity (oral administration); settings: mouse, in vivo, male mice
Excerpt: Among the chroman compounds (I), the chroman compounds (I-2) show excellent analgesic activity. In addition, these compounds have low toxicity. […] So, the chroman compounds (I-2) can be used as an analgesic.

[6] = Local anesthetic activity, tail pinch test; assay type: in vivo, Mouse; settings: s.c., 3%
Experimental: (§1) β-(2,3-Dihydro-6-hydroxy-2,5,7,8-tetramethyl-2H-benzopyranyl)alanine hydrochloride was evaluated for analgesic activity in the writhing test [cf. Koster et al., Fed. Proc., 18, 412 (1959)], local anesthetic activity in the tail pinch test [cf. Bianchi, C., Brit. J. Pharmacol., 11, 104 (1956)] and bronchodilator activity in lung perfusion [cf. Luduena, F. P., Arch. Int. Pharmacodyn., 111, 392 (1957)].

[7] = Analgesic activity, writhing test (rat); assay type: in vivo; settings: i.p., 100 mg/kg
Experimental: as §1

[8] = system: isoprenaline-induced bronchodilation; test: Bronchodilator activity, lung perfusion; settings: Table 8: guinea pig, in vitro, 300 μg
Experimental: as §1
>40% reduction in Inhibited

## Cc1c(C)c2c(c(C)c1O)CCC(C)(C(N)C(=O)O)O2 (centres unmarked)
[1]
  Absorbance, solution after 1 hr. of heating: 0.02
  Absorbance, solution after 2 hrs. of heating: 0.03
  Absorbance, solution after 3 hrs. of heating: 0.03

## Cc1c(C)c2c(c(C)c1O)CCC(C)(CCC(N)C(=O)O)O2 (centres unmarked)
[1]
  Absorbance, solution after 1 hr. of heating: 0.02
  Absorbance, solution after 2 hrs. of heating: 0.03
  Absorbance, solution after 3 hrs. of heating: 0.04

## CC1(CC(N)C(=O)O)CCc2cc(O)ccc2O1 (centres unmarked)
[1]
  Absorbance, solution after 1 hr. of heating: 0.02
  Absorbance, solution after 2 hrs. of heating: 0.03
  Absorbance, solution after 3 hrs. of heating: 0.03

## Cc1cc(O)cc2c1OC(C)(CC(N)C(=O)O)CC2 (centres unmarked)
[1]
  Absorbance, solution after 1 hr. of heating: 0.02
  Absorbance, solution after 2 hrs. of heating: 0.03
  Absorbance, solution after 3 hrs. of heating: 0.03

## Cc1cc2c(c(C)c1O)CCC(C)(CC(N)C(=O)O)O2 (centres unmarked)
[1]
  Absorbance, solution after 1 hr. of heating: 0.02
  Absorbance, solution after 2 hrs. of heating: 0.03
  Absorbance, solution after 3 hrs. of heating: 0.04

## COc1c(O)c(C)c2c(c1OC)OC(C)(CC(N)C(=O)O)CC2 (centres unmarked)
[1]
  Absorbance, solution after 1 hr. of heating: 0.02
  Absorbance, solution after 2 hrs. of heating: 0.03
  Absorbance, solution after 3 hrs. of heating: 0.05

## Cc1c2c(c3ccccc3c1O)OC(C)(CC(N)C(=O)O)CC2 (centres unmarked)
[1]
  Absorbance, solution after 1 hr. of heating: 0.02
  Absorbance, solution after 2 hrs. of heating: 0.03
  Absorbance, solution after 3 hrs. of heating: 0.05

## CCOC(=O)C(N)CC1(C)CCc2c(C)c(O)c(C)c(C)c2O1 (centres unmarked)
[1]
  Absorbance, solution after 1 hr. of heating: 0.02
  Absorbance, solution after 2 hrs. of heating: 0.03
  Absorbance, solution after 3 hrs. of heating: 0.05

## CCCCCCCCCCCCCCCCCCOC(=O)C(N)CC1(C)CCc2c(C)c(O)c(C)c(C)c2O1 (centres unmarked)
[1]
  Absorbance, solution after 1 hr. of heating: 0.03
  Absorbance, solution after 2 hrs. of heating: 0.04
  Absorbance, solution after 3 hrs. of heating: 0.07

## Cc1c(C)c2c(c(C)c1O)CCC(C)(C(O)C(=O)O)O2 (centres unmarked)
[2]
  Time till POV = 100 meq/kg: 2.3 h

## Cc1c(C)c2c(c(C)c1O)CCC(C)(CC(O)C(=O)O)O2 (centres unmarked)
[2]
  Time till POV = 100 meq/kg: 2.4 h

## Cc1c(C)c2c(c(C)c1O)CCC(C)(CCC(O)C(=O)O)O2 (centres unmarked)
[2]
  Time till POV = 100 meq/kg: 2.0 h

## CCOC(=O)C(O)C1(C)CCc2c(C)c(O)c(C)c(C)c2O1 (centres unmarked)
[2]
  Time till POV = 100 meq/kg: 2.1 h

## CCOC(=O)C(O)CC1(C)CCc2c(C)c(O)c(C)c(C)c2O1 (centres unmarked)
[2]
  Time till POV = 100 meq/kg: 2.3 h

## COC(=O)C(O)CCC1(C)CCc2c(C)c(O)c(C)c(C)c2O1 (centres unmarked)
[2]
  Time till POV = 100 meq/kg: 2.1 h

## CC1(CC(O)C(=O)O)CCc2cc(O)ccc2O1 (centres unmarked)
[2]
  Time till POV = 100 meq/kg: 2.2 h

## Cc1cc(O)cc2c1OC(C)(CC(O)C(=O)O)CC2 (centres unmarked)
[2]
  Time till POV = 100 meq/kg: 2.3 h

## COc1c(O)c(C)c2c(c1OC)OC(C)(CC(O)C(=O)O)CC2 (centres unmarked)
[2]
  Time till POV = 100 meq/kg: 2.2 h

## Cc1c2c(c3ccccc3c1O)OC(C)(CC(O)C(=O)O)CC2 (centres unmarked)
[2]
  Time till POV = 100 meq/kg: 1.9 h

## Cc1c(C)c2c(c(C)c1OC(C)(C)COC(=O)c1cccnc1)CCC(C)(C)O2 [2-(2,2,5,7,8-pentamethyl-6-chromanyloxy)isobutyl nicotinate]
[3]
  cholesterol lowering activity: have cholesterol lowering activity

## Cc1c(C)c2c(c(C)c1OC(C)(C)C(=O)OCCN(C)C)CCC(C)(C)O2 [2-(N,N-dimethylamino)ethyl 2-(2,2,5,7,8-pentamethyl-6-chromanyloxy)isobutyrate]
[3]
  cholesterol lowering activity: have cholesterol lowering activity

## O=C1O[C@H]([C@@H](O)CO)C(O)=C1O [Ascorbic acid, reference compound]
[1]
  Absorbance, solution after 1 hr. of heating: 0.10
  Absorbance, solution after 2 hrs. of heating: 0.21
  Absorbance, solution after 3 hrs. of heating: 0.30

## CC(=O)Oc1ccccc1C(=O)O [Aspirin, reference compound]
[4]
  inhibition: 40.8%

## Cc1c(C)c2c(c(C)c1O)CCC(C)(CC(N)C(=O)O)O2 (stereo not drawn) [Example 1, β-(2,3-dihydro-6-hydroxy-2,5,7,8-tetramethyl-2H-benzopyranyl)alanine hydrochloride]
[5]
  LD50: 2620 mg/kg
[4]
  inhibition: 96.1%
[6]; Mouse, tested at 15 min post-dose, criterion >3/5 protected
  Activity observed (animals protected): 5/5
[6]; Table 8: mouse
  local anesthetic activity (in words): demonstrated a local anesthetic activity
[7]; Rat, test 0.75 hr post-dose
  Activity observed (writhing score, criterion <50% of control group): 16%
[7]; Table 8: rat
  inhibition of writhing: 84%
[8]
  isoprenaline-induced bronchodilation (in words): An inhibition of isoprenaline-induced bronchodilation is also observed

## Cc1c(C)c2c(c(C)c1O)CCC(C)(CC(N)CO)O2 (centres unmarked) [Example 17, 2-amino-3-[2-(2,3-dihydro-6-hydroxy-2,5,7,8-tetramethyl-2H-benzopyranyl)]-1-propanol]
[4]
  inhibition: 83.7%

## Cc1c(C)c2c(c(C)c1O)CCC(C)(CN)O2 (centres unmarked) [Example 19, (2,3-dihydro-6-hydroxy-2,5,7,8-tetramethyl-2H-benzopyranyl)methylamine hydrochloride]
[4]
  inhibition: 65.6%

## O=C1OC(C(O)CO)C(O)=C1O (centres unmarked) [Sodium erithorbate, reference compound]
[1]
  Absorbance, solution after 1 hr. of heating: 0.11
  Absorbance, solution after 2 hrs. of heating: 0.17
  Absorbance, solution after 3 hrs. of heating: 0.18

## Cc1c(C)c2c(c(C)c1O)CCC(C)(CC(N)C(=O)O)O2 (centres unmarked) [drawing 62]
[1]
  Absorbance, solution after 1 hr. of heating: 0.02
  Absorbance, solution after 2 hrs. of heating: 0.03
  Absorbance, solution after 3 hrs. of heating: 0.03

## Cc1c(C)c2c(c(C)c1O)CCC(C)(CC(N)C(=O)O)O2 (centres unmarked) [drawing 70]
[1]
  Absorbance, solution after 1 hr. of heating: 0.02
  Absorbance, solution after 2 hrs. of heating: 0.03
  Absorbance, solution after 3 hrs. of heating: 0.04

## Cc1c(C)c2c(c(C)c1O)CCC(C)(CC(N)C(=O)O)O2 (centres unmarked) [drawing 71]
[1]
  Absorbance, solution after 1 hr. of heating: 0.02
  Absorbance, solution after 2 hrs. of heating: 0.03
  Absorbance, solution after 3 hrs. of heating: 0.03

## Cc1c(C)c2c(c(C)c1O)CCC(C)(CCCC(C)CCCC(C)CCCC(C)C)O2 (stereo not drawn) [α-Tocopherol, reference compound]
[2]
  Time till POV = 100 meq/kg: 1.4 h
[1]
  Absorbance, solution after 1 hr. of heating: 0.07
  Absorbance, solution after 2 hrs. of heating: 0.19
  Absorbance, solution after 3 hrs. of heating: 0.30
